pEC50, pIC50: −log10 of the molar value.
Legend:
[1] = biological target: T1, potassium ion channel hERG (human Ether-á-go-go-Related Gene) (Homo sapiens, UniProt Q12809); assay: Assay 5 - hERG assay (SyncroPatch 384PE patch clamp, CHO cells); assay type: cell-based; settings: geometric mean; CHO cells over-expressing hERG; read-out: Assay 5 (hERG Hu CHO IF EPh CR-Syncro) GMean IC50
T1 construct: expressed in transfected cells; host or cells: Chinese hamster ovary K1 (CHO)
Method: Assay 5—hERG Assay (Human Ether-á-go-go-Related Gene)
This assay (human Ether-á-go-go-Related Gene) measures activity of the compounds at the potassium ion channel hERG (human Ether-á-go-go-Related Gene).
Experiments were performed on the SyncroPatch 384PE high throughput patch clamp platform at room temperature and medium resistance chips with 4 patch holes per site. Chinese hamster ovary K1 (CHO) cell lines over-expressing the ion channel of choice (hERG) were used in assay-ready format and kept in liquid nitrogen or were used from live culture. Cells were either thawed and diluted in HBSS or were detached from flasks and resuspended in HBSS. HBSS comprised 140 mM NaCl, 4 mM KCl, 10 mM HEPES and 5 mM Glucose (pH7.4). The internal patch clamp solution was KF 120 mM, KCl 20 mM, HEPES 10 mM, EGTA 10 mM, and 25 PM Escin (pH 7.2). After the sealing process was complete, the external solution was exchanged for external patch clamp solution comprising NaCl 80 mM, KCl 4 mM, HEPES 10 mM, CaCl2 2 mM, MgCl2 1 mM, glucose 5 mM, and NMDG 60 mM (pH 7.4). All solutions were stored at room temperature, except Escin, which was stored at 4° C. All test compounds were dispensed in greiner-bio 384 well plates and tested in a 6 point cumulative assay (final DMSO concentration 0.33%). Only wells that passed previously agreed acceptance criteria for this platform were used in this analysis (30 MegaOhm seal resistance, Z prime >0.4 and current size >0.2 nA).

[2] = biological target: GSK3β (Glycogen synthase kinase-3 beta) (Homo sapiens, UniProt P49841); assay: Assay 6 - GSK3β assay (ThermoFisher Z-Lyte); assay type: biochemical; settings: geometric mean; ATP Conc: 10 μM; read-out: Assay 6 (GSK3β FRET-Z-Lyte CR) GMean IC50 (μM) ATP Conc: 10
Method: Assay 6—GSK3β Assay (ThermoFisher Assay)
This assay measures the activity of the compounds at GSK3β (Glycogen synthase kinase-3 beta).
The test compounds were screened in 1% DMSO (final) in the well. For 10 point titrations, 3-fold serial dilutions are conducted from the starting concentration of 10 μM.
Bar-coded Corning, low volume NBS, black 384-well plate • 1. 2.5 μL—4× Test Compound or 100 nL 100× plus 2.4 μL kinase buffer • 2. 5 μL—2× Peptide/Kinase Mixture • 3. 2.5 μL—4×ATP Solution • 4. 30-second plate shake • 5. 60-minute Kinase Reaction incubation at room temperature • 6. 5 μL—Development Reagent Solution • 7. 30-second plate shake • 8. 60-minute Development Reaction incubation at room temperature • 9. Read on fluorescence plate reader and analyse the data
In step 2, the 2×GSK3β (GSK3 beta)/Ser/Thr (Glycogen synthase kinase-3 beta/Serine/Threonine) 09 mixture is prepared in 50 mM HEPES (4-(2-hydroxyethyl)-1-piperazineethanesulfonic acid) pH 7.5, 0.01% BRIJ-35, 10 mM MgCl2, 1 mM EGTA (egtazic acid). The final 10 μL Kinase Reaction consists of 0.22-0.92 ng GSK3β (GSK3 beta) and 2 μM Ser/Thr 09 in 50 mM HEPES pH 7.5, 0.01% BRIJ-35, 10 mM MgCl2, 1 mM EGTA.
In step 3 the ATP Solution is diluted to a 4× working concentration in Kinase Buffer (50 mM HEPES pH 7.5, 0.01% BRIJ-35, 10 mM MgCl2, 1 mM EGTA).
In Step 6 the Development Reagent is diluted 1:512 in Development Buffer (10× Novel PKC Lipid Mix: 2 mg/mL Phosphatidyl Serine, 0.2 mg/mL DAG in 20 mM HEPES, pH 7.4, 0.3% CHAPS).
SelectScreen® Kinase Profiling Service uses XLfit from IDBS. The dose response curve is curve fit to model number 205 (sigmoidal dose-response model).

PCSK9 [3] = biological target: T2, PCSK9 (Homo sapiens, UniProt Q8NBP7, G670E/V474I); assay: biochemical
PCSK9 [4] = biological target: T2, PCSK9; assay: Assay 3 - PCSK9 LDL-C uptake assay in HepG2 cells; assay type: cell-based; design: TEV cleavage site (C); His6 (C); host or cells: added to HepG2 cells (ATCC #HB-8065); settings: 125 nM PCSK9, pHrodo Red-LDL, read-out: Assay 3 LDL uptake potency
Source text: Assay 3—PCSK9 LDL-C Uptake Assay
This assay measures for PCSK9 antagonist activity based on a test compound's capacity to restore LDL-C-uptake in HepG2 cells. The assay is based on exogenous PCSK9 and LDL-C complexed with a pH-sensitive dye. Outside the cells, at neutral pH, the pHrodo Red-LDL is dimly fluorescent but upon LDLR mediated endocytosis it fluoresces brightly. PCSK9 traffics the LDLR to intracellular degradation and reduces uptake of LDL-C. Inhibition of PCSK9 reduces LDLR degradation and the increased LDL-C uptake is quantified by fluorescence microscopy.
Preparation of Assay Reagents
Cell medium: MEM supplemented with 10% FBS, 1×NEAA and Sodium Pyruvate Assay medium: OptiMem supplemented with penicillin/streptomycin
Cells: HepG2 (ATCC #HB-8065)
Step by Step Protocol for Running the Assay:
• 1. Cryopreserved HepG2 cells were thawed in assay medium and centrifuged for 5 min at 250 g. Supernatant was discarded and the cell pellet resuspended in cell medium and counted with a Nucleocounter. Cells were again centrifuged 5 min at 250 g and the pellet was resuspended to 500000 cells/mL in assay medium. • 2. 20 μL of above cell mix was dispensed into black pclear TC treated 384 well plates with Multidrop Combi and left at room temperature for 20 minutes. • 3. Plates were incubated at 37° C., 5% CO2 for 24 h
• 1. Test compounds were prepared in concentration response in DMSO with a half-log dilution factor in DMSO in Echo 384 LDV plates starting at 10 mM. • 2. 30 nL of above test compounds were dispensed with Echo 655 to cells for a top concentration of 10 μM • 3. 10 μL PCSK9 in assay medium was dispensed to cells with Multidrop Combi for 125 nM final concentration in the wells. • 4. Plates were incubated at 37° C., 5% CO2 for 24 h
• 1. 10 μL pHrodo Red-LDL in assay medium was dispensed to cells with Multidrop Combi for 6 μg/mL • 2. Plates were incubated at 37° C., 5% CO2 and imaged with the Incucyte S3 after 4 h and 24 h
Image data was processed using Incucyte 2021, a software to identify cells and red fluorescent intensity. Screener was used to further process data. Data was normalized as % effect of the signal between median values of the on-plate controls of DMSO and 100 nM Evolocumab according to the formula % effect=−100*(x−DMSO)/(Evolocumab−DMSO) where x equals the measured signal. Concentration response data of the normalized values were fitted using a four-parameter logistic fit.

T2 sequence (Q8NBP7 with tags, fused parts or gaps V474I/G670E): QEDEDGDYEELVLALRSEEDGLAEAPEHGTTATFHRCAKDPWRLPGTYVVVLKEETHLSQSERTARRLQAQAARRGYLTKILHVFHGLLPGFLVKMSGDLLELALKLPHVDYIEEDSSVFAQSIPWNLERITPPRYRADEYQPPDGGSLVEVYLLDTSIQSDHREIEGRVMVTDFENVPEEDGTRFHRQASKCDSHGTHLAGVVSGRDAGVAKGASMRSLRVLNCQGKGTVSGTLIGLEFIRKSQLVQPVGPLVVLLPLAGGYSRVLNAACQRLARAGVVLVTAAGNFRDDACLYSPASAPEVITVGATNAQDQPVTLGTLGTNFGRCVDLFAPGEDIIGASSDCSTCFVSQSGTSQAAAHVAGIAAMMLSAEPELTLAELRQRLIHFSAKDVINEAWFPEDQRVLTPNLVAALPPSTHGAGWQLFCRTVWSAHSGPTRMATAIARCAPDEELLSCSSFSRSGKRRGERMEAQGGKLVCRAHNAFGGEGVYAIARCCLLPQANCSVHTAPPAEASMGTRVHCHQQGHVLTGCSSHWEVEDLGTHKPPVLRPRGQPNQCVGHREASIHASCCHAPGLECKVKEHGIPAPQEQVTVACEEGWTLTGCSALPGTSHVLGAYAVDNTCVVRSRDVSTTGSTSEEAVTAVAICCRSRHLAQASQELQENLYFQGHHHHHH
T1 sequence (Q12809 whole entry): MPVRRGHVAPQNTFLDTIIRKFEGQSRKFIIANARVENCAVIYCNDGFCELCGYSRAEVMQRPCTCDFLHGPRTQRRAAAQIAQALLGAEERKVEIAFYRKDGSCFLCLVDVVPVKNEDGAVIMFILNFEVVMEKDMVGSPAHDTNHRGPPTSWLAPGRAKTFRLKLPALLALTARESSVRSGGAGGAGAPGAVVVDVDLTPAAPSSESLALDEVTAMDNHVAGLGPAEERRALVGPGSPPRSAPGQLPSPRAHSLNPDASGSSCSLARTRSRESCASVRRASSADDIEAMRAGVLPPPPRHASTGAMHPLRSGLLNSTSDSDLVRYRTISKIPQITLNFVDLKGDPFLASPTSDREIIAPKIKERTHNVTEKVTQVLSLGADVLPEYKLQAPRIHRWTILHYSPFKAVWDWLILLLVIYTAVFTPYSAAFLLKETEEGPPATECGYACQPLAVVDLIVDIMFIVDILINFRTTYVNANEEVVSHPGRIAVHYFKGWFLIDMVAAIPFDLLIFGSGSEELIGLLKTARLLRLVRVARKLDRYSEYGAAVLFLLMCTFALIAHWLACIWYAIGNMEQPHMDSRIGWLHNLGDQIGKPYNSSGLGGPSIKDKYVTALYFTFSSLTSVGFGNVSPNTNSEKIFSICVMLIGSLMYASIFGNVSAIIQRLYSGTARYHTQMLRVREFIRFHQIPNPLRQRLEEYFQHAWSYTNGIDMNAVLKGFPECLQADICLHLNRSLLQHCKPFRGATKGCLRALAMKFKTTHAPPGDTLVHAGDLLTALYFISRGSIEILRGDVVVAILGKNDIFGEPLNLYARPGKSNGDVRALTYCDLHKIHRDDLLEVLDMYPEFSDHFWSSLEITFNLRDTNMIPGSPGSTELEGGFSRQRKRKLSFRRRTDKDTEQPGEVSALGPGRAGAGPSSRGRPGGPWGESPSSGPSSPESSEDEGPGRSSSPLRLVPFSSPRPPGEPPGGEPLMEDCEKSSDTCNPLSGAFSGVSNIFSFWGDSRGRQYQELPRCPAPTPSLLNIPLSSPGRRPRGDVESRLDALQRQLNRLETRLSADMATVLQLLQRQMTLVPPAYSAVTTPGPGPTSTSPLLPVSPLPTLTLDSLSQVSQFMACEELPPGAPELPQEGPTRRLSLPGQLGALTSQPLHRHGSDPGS
GSK3β (Glycogen synthase kinase-3 beta), sequence (P49841 whole entry): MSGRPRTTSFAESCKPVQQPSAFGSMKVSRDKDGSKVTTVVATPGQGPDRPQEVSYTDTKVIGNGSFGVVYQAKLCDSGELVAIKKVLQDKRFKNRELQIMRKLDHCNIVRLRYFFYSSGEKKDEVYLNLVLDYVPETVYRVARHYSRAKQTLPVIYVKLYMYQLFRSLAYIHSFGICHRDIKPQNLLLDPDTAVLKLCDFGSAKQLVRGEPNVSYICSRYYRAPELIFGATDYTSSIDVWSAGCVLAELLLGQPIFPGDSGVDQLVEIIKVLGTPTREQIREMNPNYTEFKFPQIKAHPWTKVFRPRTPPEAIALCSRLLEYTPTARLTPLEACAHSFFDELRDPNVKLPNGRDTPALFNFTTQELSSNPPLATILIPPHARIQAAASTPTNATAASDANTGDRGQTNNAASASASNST

Structure (SMILES)	pIC50 [1]	IC50 [2] [µM]	pIC50 (PCSK9 [3])	pEC50 (PCSK9 [4])
COc1cccn(-c2ccc(N[C@H]3CC[C@H](Nc4cnc(C)cn4)C3)nc2)c1=O (racemic) [Example 170, rel-3-Methoxy-6′-(((1R,3R)-3-((5-methylpyrazin-2-yl)amino)cyclopentyl)amino)-2H-[1,3′-bipyridin]-2-one]	< 4.40	7	7.96	6.70
COc1cccn(-c2ccc(N[C@H]3CC[C@H](Nc4cnc(C)cn4)C3)nc2)c1=O (relative stereo) [Example 172, rel-3-Methoxy-6′-(((1R,3R)-3-((5-methylpyrazin-2-yl)amino)cyclopentyl)amino)-2H-[1,3′-bipyridin]-2-one]	< 4.40	3.7	8.28	7.00
Cc1ncc(N[C@H]2CC[C@H](Nc3ccc(-n4c(=O)n(C)c5ccccc54)cn3)C2)nc1C [Example 11, 1-(6-(((1S,3S)-3-((5,6-Dimethylpyrazin-2-yl)amino)cyclopentyl)amino)pyridin-3-yl)-3-methyl-1,3-dihydro-2H-benzo[d]imidazol-2-one]	4.69	> 10	8.49	6.52
COc1cccn(-c2ccc(N[C@H]3CC[C@H](Nc4cnc(C)c(C)n4)C3)nc2)c1=O [Example 12, 6′-(((1S,3S)-3-((5,6-Dimethylpyrazin-2-yl)amino)cyclopentyl)amino)-3-methoxy-2H-[1,3′-bipyridin]-2-one]	< 4.40	> 10	7.89	7.00
COc1cccn(-c2ccc(N[C@H]3CC[C@H](Nc4cnc(Cl)cn4)C3)nc2)c1=O [Example 13, 6′-(((1S,3S)-3-((5-Chloropyrazin-2-yl)amino)cyclopentyl)amino)-3-methoxy-2H-[1,3′-bipyridin]-2-one]	4.45	> 10	8.40	6.70
Cc1ncc(N[C@H]2CC[C@H](Nc3ccc(-n4cc(C(=O)O)ccc4=O)cn3)C2)nc1C [Example 14, 6′-(((1S,3S)-3-((5,6-Dimethylpyrazin-2-yl)amino)cyclopentyl)amino)-2-oxo-2H-[1,3′-bipyridine]-5-carboxylic acid]	< 4.40	> 10	7.28	6.70
Cc1ncc(N[C@H]2CC[C@H](Nc3ccc(-n4cccc(Cl)c4=O)cn3)C2)nc1C [Example 19, 3-Chloro-6′-(((1S,3S)-3-((5,6-dimethylpyrazin-2-yl)amino)cyclopentyl)amino)-2H-[1,3′-bipyridin]-2-one]	4.61	> 10	8.28	7.00
Cc1ncc(N[C@H]2CC[C@H](Nc3ccc(-n4c(=O)ccc5cccnc54)cn3)C2)nc1C [Example 20, 1-(6-(((1S,3S)-3-((5,6-Dimethylpyrazin-2-yl)amino)cyclopentyl)amino)pyridin-3-yl)-1,8-naphthyridin-2 (1H)-one]	< 4.40	> 10	7.77	7.00
Cc1ncc(N[C@H]2CC[C@H](Nc3ccc(-n4c(=O)n(C)c5cccnc54)cn3)C2)nc1C [Example 21, 3-(6-(((1S,3S)-3-((5,6-Dimethylpyrazin-2-yl)amino)cyclopentyl)amino)pyridin-3-yl)-1-methyl-1,3-dihydro-2H-imidazo[4,5-b]pyridin-2-one]	4.48	> 10	7.96	7.00
Cc1ncc(N[C@H]2CC[C@H](Nc3ccc(-n4cccc(C#N)c4=O)cn3)C2)nc1C [Example 23, 6′-(((1S,3S)-3-((5,6-Dimethylpyrazin-2-yl)amino)cyclopentyl)amino)-2-oxo-2H-[1,3′-bipyridine]-3-carbonitrile]	4.44	> 10	8.06	6.15
O=c1[nH]c2ccccc2n1-c1ccc(N[C@H]2CC[C@H](Nc3cnc(Cl)cn3)C2)nc1 [Example 31, 1-(6-(((1S,3S)-3-((5-Chloropyrazin-2-yl)amino)cyclopentyl)amino)pyridin-3-yl)-1,3-dihydro-2H-benzo[d]imidazol-2-one]	5.09	> 10	8.43	6.70
O=c1ccc(-c2nnn[nH]2)cn1-c1ccc(N[C@H]2CC[C@H](Nc3cnc(Cl)cn3)C2)nc1 [Example 179, 6′-(((1S,3S)-3-((5-Chloropyrazin-2-yl)amino)cyclopentyl)amino)-5-(1H-tetrazol-5-yl)-2H-[1,3′-bipyridin]-2-one]		6.9	8.33	7.00
Cc1cnc(N[C@H]2CC[C@H](Nc3ccc(N4C(=O)CCc5cccnc54)cn3)C2)cn1 [Example 276, 1-(6-(((1S,3S)-3-((5-Methylpyrazin-2-yl)amino)cyclopentyl)amino)pyridin-3-yl)-3,4-dihydro-1,8-naphthyridin-2 (1H)-one]	< 4.40	> 10	7.10	
Cc1cnc(N[C@H]2CC[C@H](Nc3ccc(-n4nccc(OC(F)F)c4=O)cn3)C2)cn1 [Example 282, 4-(Difluoromethoxy)-2-(6-(((1S,3S)-3-((5-methylpyrazin-2-yl)amino)cyclopentyl)amino)pyridin-3-yl)pyridazin-3 (2H)-one]	< 4.40	> 10	8.00	
